Data: patent US4001248A, “N-cycloalkylmethyl decahydroisoquinolines” (Eli Lilly and Company, priority 1974, dated 1977)
“And” between values parts separate entries of the source, which are not always exact repeats. Identical values can stand only once.

Experiments:
[1] = system: morphine induced Straub tail; assay: blocking of morphine induced Straub tail in mice; type: in vivo; conditions: for blocking on the morphine-induced Straub tail: 15 and 30 minutes before assay
Description: In this assay, a 40 mg./kg. dose of morphine was administered to mice 15 minutes prior to assay, and the test drug at various intervals before assay. Trans-dl-1 -cyclopropylmethyl-3a-(m-hydroxyphenyl)-1,2,3,3a,4,5,6,7,7a,8-decahydroisoquinoline maleate gave a 100 percent block of the Straubed tail effected by a subcutaneous injection of 40 mg./kg. of morphine when the test drug was given at a dose of 50 mg./kg. subcutaneously 15 minutes prior to assay, and 80 percent when given 30 minutes prior to assay. The l(-) isomer gave 100 percent blocking on the morphine-induced Straub tail at 50 and 20 mg./kg. doses 15 and 30 minutes before assay.

[2] = system: rat tail jerk; assay: rat tail jerk assay (increase in reaction time over control); type: in vivo
Description: The compounds of this invention are also active in the rat tail jerk assay, another standard pharmacologic test for analgesic activity of the opiate-type. Such activity is manifested as an increase in the reaction time of the animal in removing (jerking) its tail from a nearby heat stimulus (a resistance wire) after drug administration compared to control time (no drug administered). Table 2 which follows gives the increased reaction times over control times produced by the compounds of this invention when administered subcutaneously. In Tables 2 and 3, column 1 gives the name of the compound; column 2, the dose; column 3, time of observation after administration of the drug; column 4, the increase in reaction time above control in seconds; and column 5, the level of significance of the results ("p" value). […] All drugs were administered as aqueous solutions. More than one value for a given dose level indicates multiple determinations. The results are not averaged.

[3] = toxicity (L.D.50); type: in vivo, mice; conditions: compared with dl mixture
[4] = system: writhing in mice induced by the intraperitoneal injection of acetic acid; assay: mouse-writhing test (inhibition of writhing induced by intraperitoneal acetic acid); type: in vivo; conditions: reading at 0.25 hours
Description: In the Table, column 1 gives the name of the compund; column 2, the dosage in mg./kg. of mouse weight; column 3, the route of administration of the drug ("S.C." is subcutaneous and "or" is oral); and column 4, the percent inhibition found at the particular dose level. […] Median inhibiting doses (I.D.50) are also included in the Table.

[5] = system: morphine; assay: modified rat tail jerk assay, antagonism of morphine; type: in vivo, rats
Description: The ability of the compounds of this invention to antagonize the action of morphine, an opiate, is shown by the following modification of the aforementioned rat tail jerk assay: The standard assay procedure is used with the exception that a 7 amps. current is used instead of a 6 amps. current in the hot wire to decrease the measurable agonist effects of the antagonist. The drugs under test are then administered to groups of rats at different dose levels at different times prior to test, with a 5 mg./kg. dose of morphine invariably being administered 10 minutes prior to test. Positive evidence of antagonism is a decreased reaction time over that to be expected from the morphine. […] Among the compounds of this invention, those in which R in Structure I is cyclopropylmethyl are the preferred antagonists, showing activity in the above test procedure. […] In a series of determinations, it was ascertained that the minimum subcutaneous dose necessary to reduce the analgesic effects of a 5 mg./kg. subcutaneous dose of morphine was in the range 2.5-5.0 mg./kg. and the minimum oral dose, 5-10 mg./kg.

[6] = subcutaneous, 10 mg./kg., 15 min
[7] = subcutaneous, 50 mg./kg., 15 min

## O=C(O)/C=C\C(=O)O.Oc1cccc([C@@]23CCCC[C@H]2CN(CC2CC2)CC3)c1 (stereo in doubt) [Trans-l(-)-1-cyclopropylmethyl-3a-(m-hydroxyphenyl)-1,2,3,3a] [Trans-l(-)-1-cyclopropylmethyl-3a-(m-hydroxyphenyl)-1,2,3,3a,4,5,6,7,7a,8-decahydroisoquinoline maleate]
[1]; 20 mg./kg.
  blocking on the morphine-induced Straub tail: 100%
[1]; 50 mg./kg.
  blocking on the morphine-induced Straub tail: 100%
[1]; morphine 40 mg./kg.
  blocking the morphine induced Straub tail: manifests antagonistic effects in blocking the morphine induced Straub tail in mice
[2]; oral, 5 mg./kg., 60 min
  Increase in Reaction Time Over Control: .20 s
[2]; oral, 10 mg./kg., 60 min
  Increase in Reaction Time Over Control: .65 s
[2]; oral, 25 mg./kg., 60 min
  Increase in Reaction Time Over Control: 1.30 s
[2]; oral, 50 mg./kg., 30 min
  Increase in Reaction Time Over Control: 2.25 s
[2]; oral, 50 mg./kg., 60 min
  Increase in Reaction Time Over Control: 2.80 s
[2]; oral, 50 mg./kg., 120 min
  Increase in Reaction Time Over Control: .80 s
[2]; oral, 100 mg./kg., 60 min
  Increase in Reaction Time Over Control: 3.15 s
[2]; oral, 200 mg./kg., 30 min, 20 sec. cut off
  Increase in Reaction Time Over Control: 4.90 s
[2]; oral, 200 mg./kg., 60 min
  Increase in Reaction Time Over Control: 5.40 s
[2]; oral, 200 mg./kg., 120 min
  Increase in Reaction Time Over Control: 2.65 s
[2]; subcutaneous, 0.1 mg./kg., 30 min
  Increase in Reaction Time Over Control: 85 s
[2]; subcutaneous, 0.5 mg./kg., 30 min
  Increase in Reaction Time Over Control: 1.30 s
[2]; subcutaneous, 1 mg./kg., 30 min
  Increase in Reaction Time Over Control: 0 s
[2]; subcutaneous, 5 mg./kg., 10 min
  Increase in Reaction Time Over Control: 2.75 s
[2]; subcutaneous, 5 mg./kg., 15 min
  Increase in Reaction Time Over Control: 3.45 s
[2]; subcutaneous, 5 mg./kg., 30 min
  Increase in Reaction Time Over Control: 3.55 s and 2.95 s
[2]; subcutaneous, 5 mg./kg., 30 min, 20 sec. cut off
  Increase in Reaction Time Over Control: 6.65 s and 6.95 s
[2]; subcutaneous, 5 mg./kg., 60 min
  Increase in Reaction Time Over Control: 1.0 s
[2]; subcutaneous, 5 mg./kg., 120 min
  Increase in Reaction Time Over Control: 0 s
[2]; subcutaneous, 5 mg./kg., 180 min
  Increase in Reaction Time Over Control: 0 s
[2]; subcutaneous, 10 mg./kg., 10 min, 20 sec. cut off
  Increase in Reaction Time Over Control: 7.30 s
[2]; [6]
  Increase in Reaction Time Over Control: 5.80 s
[2]; subcutaneous, 10 mg./kg., 15 min, 20 sec. cut off
  Increase in Reaction Time Over Control: 6.70 s
[2]; subcutaneous, 10 mg./kg., 60 min
  Increase in Reaction Time Over Control: 3.0 s
[2]; subcutaneous, 10 mg./kg., 90 min
  Increase in Reaction Time Over Control: 2.55 s
[2]; subcutaneous, 10 mg./kg., 120 min
  Increase in Reaction Time Over Control: 4.0 s
[2]; subcutaneous, 10 mg./kg., 180 min
  Increase in Reaction Time Over Control: 1.50 s
[2]; [7]
  Increase in Reaction Time Over Control: 7.35 s
[3]; listed as l(-) isomer
  toxicity relative to the dl mixture: less toxic than the dl mixture
[4]; 2 mg./kg. S.C.
  % Inhibition: 47%
[4]; 5 mg./kg. S.C.
  % Inhibition: 72%
[5]; subcutaneous
  dose showing antagonism of morphine: 1 to 2 mg/kg

## O=C(O)/C=C\C(=O)O.Oc1cccc([C@@]23CCCC[C@H]2CN(CC2CC2)CC3)c1 (stereo in doubt) [Trans-d(+)-1-cyclopropylmethyl-3a-(m-hydroxyphenyl)-1,2,3,3a] [Trans-d(+)-1-cyclopropylmethyl-3a-(m-hydroxyphenyl)-1,2,3,3a,4,5,6,7,7a,8-decahydroisoquinoline maleate]
[2]; oral, 100 mg./kg., 30 min
  Increase in Reaction Time Over Control: 0 s
[2]; oral, 100 mg./kg., 60 min
  Increase in Reaction Time Over Control: 0 s
[2]; oral, 100 mg./kg., 120 min
  Increase in Reaction Time Over Control: .40 s
[2]; oral, 150 mg./kg., 15 min
  Increase in Reaction Time Over Control: 0 s
[2]; oral, 150 mg./kg., 30 min
  Increase in Reaction Time Over Control: 0 s
[2]; oral, 150 mg./kg., 60 min
  Increase in Reaction Time Over Control: .35 s
[2]; oral, 150 mg./kg., 120 min
  Increase in Reaction Time Over Control: .30 s
[2]; oral, 150 mg./kg., 180 min
  Increase in Reaction Time Over Control: .30 s
[2]; oral, 200 mg./kg.
  lethality in the rat tail jerk assay: lethal
[2]; [6]
  Increase in Reaction Time Over Control: 0 s
[2]; [7]
  Increase in Reaction Time Over Control: .25 s
[2]; subcutaneous, 50 mg./kg., 30 min
  Increase in Reaction Time Over Control: 1.30 s
[2]; subcutaneous, 50 mg./kg., 60 min
  Increase in Reaction Time Over Control: 2.25 s
[2]; subcutaneous, 50 mg./kg., 120 min
  Increase in Reaction Time Over Control: .10 s
[2]; subcutaneous, 100 mg./kg., 15 min
  Increase in Reaction Time Over Control: .50 s
[2]; subcutaneous, 100 mg./kg., 30 min
  Increase in Reaction Time Over Control: 1.55 s
[2]; subcutaneous, 100 mg./kg., 60 min
  Increase in Reaction Time Over Control: 3.50 s
[2]; subcutaneous, 100 mg./kg., 120 min
  Increase in Reaction Time Over Control: 1.15 s
[3]; listed as d(+) isomer
  toxicity relative to the dl mixture: about the same toxicity as the dl mixture
[4]; 5 mg./kg. S.C.
  % Inhibition: inact
[4]; 50 mg./kg. S.C.
  % Inhibition: 44%
[4]; 100 mg./kg. S.C.
  % Inhibition: 51%
[5]; 100 mg./kg. subcutaneous, 60 minutes before test
  morphine antagonistic effects: shows morphine antagonistic effects
